Where two headings read alike, the source gives them in different places.
Experiments:
pooled normal plasma [1] = experiment: PT clotting assay with modified thromboplastin reagents; format: biochemical, human; details: for Concentration of TF that yields a 50 sec. clot time: His-tagged sTF with Ni-NTA-DOGS/PCPSPE (SUV with 10 mol % Ni-NTA-DOGS), rTF with PCPS
Procedure: Thromboplastin reagents containing TF and phospholipids were prepared and diluted to various concentrations of TF. The diluted thromboplastin reagents were then used in the PT assay (FIG. 4). The four modified thromboplastin reagents were made as follows: 1. 100 ng/ml rTF relipidated in PCPS vesicles (30 μM), 2. […] The thromboplastin reagents were diluted in TA (50 mM Tris-HCl buffer, pH 7.5, 0.1% bovine serum albumin, 0.1% NaN3) to varying concentrations of TF.
(§1) The modified aPTT reagent contained varying concentrations of the indicated metal salts, NTA-lipids (100 μM lipid), 0.08% (w/v) sodium azide, and 16 mM Hepes buffer, pH 7.4.
Thromboplastin reagents—To prepare a conventional thromboplastin reagent, rTF was relipidated into phospholipid vesicles composed of 20 mol % PS, 80 mol % PC (rTF/PCPS) at a 8700:1 molar ratio of phospholipid to rTF as described. rTF/PCPS preparations were then diluted to the desired final rTF concentration in TBSA (50 mM Tris-HCl buffer, pH 7.5, 100 mM NaCl, 0.1% bovine serum albumin, 0.1% NaN3).
(§2) PT clotting assay—PT assays were performed in a model ST4 coagulometer (Diagnostica Stago) by pipetting 50 μl of 25 mM CaCl2 and 50 μl diluted thromboplastin reagent into a coagulometer cuvette and allowing the mixture to warm to 37° C. for 2 min. Clotting was then initiated by pipetting 50 μl pre-warmed, pooled normal plasma into the cuvette and the time to clot formation recorded.

pooled normal plasma [2] = experiment: aPTT clotting assay; format: biochemical, human; details: metal ion with NTA-lipids (100 μM lipid)
Procedure: as §1
aPTT assays were performed with modified aPTT reagents containing varying concentrations of NiSO4, CoCl2, CuSO4, ZnCl2, FeSO4, CdCl2, CrCl2, AgNO3 or MnCl2 in the presence of NTA-lipids (FIG. 12C). […] Co^2+ and Zn^2+ some activity (see FIG. 12C). […] Ni^2+ performed substantially better in this assay than did Cu^2+.
aPTT clotting assay—aPTT clotting assays were also carried out in a model ST4 coagulometer (Diagnostica Stago). The aPTT assays were performed by pipetting 50 μl of an aPTT reagent and 50 μl pooled normal plasma into a coagulometer cuvette and incubating the mixture for 3 min at 37° C. 50 μl prewarmed 25 mM CaCl2 was then pipetted into the cuvette and the time to clot formation was recorded.

VIIa [3] = biological target: T1, VIIa (Homo sapiens, UniProt P08709); experiment: Kd for VIIa binding to TF (X activation rate as readout)
T1 construct: VIIa or factor VIIa means coagulation factor VIIa (active enzyme); purchased American Diagnostica
T1 sequence (P08709 61-212): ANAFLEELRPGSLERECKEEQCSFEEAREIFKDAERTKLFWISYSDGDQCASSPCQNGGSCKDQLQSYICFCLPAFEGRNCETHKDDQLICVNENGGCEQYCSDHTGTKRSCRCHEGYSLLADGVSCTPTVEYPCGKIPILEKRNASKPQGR
T1 sequence (P08709 213-466): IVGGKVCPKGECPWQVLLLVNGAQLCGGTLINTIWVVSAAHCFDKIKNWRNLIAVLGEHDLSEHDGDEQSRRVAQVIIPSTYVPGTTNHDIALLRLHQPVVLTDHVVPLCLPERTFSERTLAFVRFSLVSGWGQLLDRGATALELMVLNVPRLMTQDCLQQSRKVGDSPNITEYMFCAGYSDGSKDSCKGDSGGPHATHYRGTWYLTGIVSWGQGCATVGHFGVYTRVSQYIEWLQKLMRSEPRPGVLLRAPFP
Procedure: When VIIa binds to TF, its rate of X activation increases dramatically, so this can be used as a convenient readout for TF:VIIa complex formation. […] Therefore, when the isolated TF ectodomain was attached to the membrane surface via interaction with metal-chelating lipids, its VIIa binding ability was indistinguishable from membTF that spanned the lipid bilayer.
Measurement of the Kd for VIIa binding to TF—The binding affinity of VIIa for various forms of TF was measured using the TF-dependent increase in the rate of X activation as the readout for TF:VIIa complex formation. Activation of X by the TF:VIIa complex was measured by adapting the continuous chromogenic assay of Fiore et al.. Reaction mixtures containing Vila and either rTF/PCPS or sTF+SUVs were prepared in HBSAC. Reactions were initiated by adding a mixture of X and the chromogenic substrate, S-2222, in a flat bottom, 96-well plate. Change in A405 was monitored at ambient temperature in a VERSAmax microplate reader (Molecular Devices), sampling every 15 sec for 20 min. Initial rates of X activation were determined by fitting a second-order polynomial to the A405 data as described. The quadratic ligand binding equation was fit to the rate data as described to derive apparent Kd values for the binding of VIIa to TF. For experiments using relipidated rTF, typical reaction mixtures containing 0.25 μM VIIa and 20 nM X in HBSAC were incubated with increasing concentrations of rTF/PCPS.

VIIa [4] = biological target: T2, VIIa (Homo sapiens, UniProt P08709); experiment: Allosteric activation of VIIa (chromogenic assay); format: biochemical; details: compared to sTF and rTF/PCPS; data not shown
T2 construct: VIIa or factor VIIa means coagulation factor VIIa (active enzyme); purchased American Diagnostica
Procedure: Measurement of Allosteric Activation of VIIa—The ability of TF to allosterically activate factor VIIa was carried out measuring the enzymatic activity of factor VIIa by a chromogenic assay. […] The reaction was initiated by the addition of the chromogenic substrate, Chromozym® t-PA (ChtPA) in a flat bottom, 96-well plate. […] Change in A405 was monitored at ambient temperature in a VERSAmax microplate reader (Molecular Devices), reading every 30 seconds for 20 minutes.

factor-deficient plasmas = experiment: PT assay with factor-deficient plasmas; format: biochemical, human; details: 3 μg/ml sTF(His)6 with 100 μM 15% Ni-lipid, or commercial reagent
Excerpt: A major goal was to create a soluble form of TF that can function as a thromboplastin reagent in the PT assays. […] This reagent was then compared in PT assays to a commercially available thromboplastin reagent, STA-Neoplastine CI Plus (Diagnostica Stago). Clotting times with the two reagents were compared using pooled normal plasma as well as a number of factor-deficient plasmas (FIG. 6). (The latter were deficient in factors V, VII, VIII, IX, X, XI, XII, prekallikrein (PK), or high molecular weight kininogen (HK)).
as §2

X activation by VIIa = biological target: T3, X activation by VIIa (Homo sapiens, UniProt P08709); experiment: Factor X activation using liposomes; format: biochemical; details: sTF-5AA-(His)6 with PCPS liposomes, or sTF with NiPCPS liposomes
T3 construct: VIIa or factor VIIa means coagulation factor VIIa (active enzyme); purchased American Diagnostica
Procedure: A stringent test of TF:VIIa function is its ability to support the activation of its natural protein substrate, X. This requires that TF be incorporated into a suitable phospholipid membrane (i.e., one containing negatively charged phospholipids). […] The ability of various forms of TF to support the activation of X was compared under equivalent concentrations of enzyme (500 pM VIIa), cofactor (4 pM TF) and liposomes (50 μM total lipid).
Factor X activation using liposomes. […] At varying times, 20 μl aliquots were removed into a 96-well plate containing 100 μl Stop Buffer 1 (40 mM Mes-NaOH pH 5.8, 12 mM EDTA, 50 mM NaCl, 0.25% Triton X-100, 0.1% NaN3, 0.012% Antifoam C) at 4° C. After warming the stopped reactions to room temperature, Xa was detected by adding 60 μl of 1.5 mM Spectrozyme Xa in HBSAC plus 0.6 M Tricine-NaOH, pH 8.4 and quantifying change in A405. Amounts of Xa generated were determined by comparison to a standard curve with purified Xa.

[5] = tested on: pooled normal human plasma; experiment: Clotting assay with immobilized lipids; format: biochemical; details: 200 nmol dried NiPCPSPE per well; 4800 nM
Procedure: Mixtures of DOGS-NTA-Ni and phospholipids were dried-down in the wells of a polystyrene coagulometer cuvette, the cuvettes were washed to remove any non-immobilized lipid, and then sTF-5AA-(His)6 was added to the wells. Clotting tests were subsequently conducted by adding calcium ions and plasma to wells. […] Control experiments were conducted using other lipid compositions, which were all dried down onto the cuvette well at a single amount of lipid per well (200 nmol).
Clotting assay with immobilized lipids—Lipid mixtures in chloroform were first dried down in a borosilicate glass test tube under a gentle stream of dry nitrogen gas to remove the solvent, after which the dried lipids were redissolved in n-hexane at a total lipid concentration of 0.3 to 5.3 mM. Complete lipid mixtures were termed NiPCPSPE and consisted of 10% DOGS-NTA-Ni, 12.5% PS, 30% PE, and 47.5% PC. […]
Each well of an ST4 cuvette received 150 μl of lipid solution in hexane (containing 50 to 800 nmol total lipid per well). […] A 50 μl aliquot of 25 mM CaCl2 was added per well and the cuvettes were incubated for 2 min at 37° C., after which a 50 μl aliquot of pre-warmed (37° C.) pooled normal human plasma was added and the time to clot formation was measured.

VIIa [6] = biological target: T1, VIIa; details: rTF relipidated into PCPS vesicles; literature [4]; read-out: Kd for VIIa binding; cited from earlier work
[7] = ± SEM, sTF and rTF with PCPS, sTF-(His)6 with Ni-NTA-DOGS/PCPSPE (SUV with 15 mol % Ni-NTA-DOGS), read-out: Kd.app for VIIa binding

[Cl-].[Cl-].[Co+2] [Co^2+, CoCl2]
PT clotting time shortened to (pooled normal plasma [1]; metal ion added to modified thromboplastin reagent, NTA-lipids, 30 ng/ml sTF-5AA-(His)6): less than 100 sec
activity in aPTT assay (pooled normal plasma [2]): some activity

O=S(=O)([O-])[O-].[Cu+2] [Cu^2+, CuSO4]
activity in aPTT assay (pooled normal plasma [2]): dramatically shortened the clotting time

O=S(=O)([O-])[O-].[Ni+2] [Ni^2+, NiSO4]
activity in aPTT assay (pooled normal plasma [2]): dramatically shortened the clotting time

[Cl-].[Cl-].[Zn+2] [Zn^2+, ZnCl2]
activity in PT assay (pooled normal plasma [1]; metal ion with NTA-lipids (100 μM lipid), 30 ng/ml sTF-5AA-(His)6): some activity
activity in aPTT assay (pooled normal plasma [2]): some activity

sTF(His)6: oligohistidine-tagged sTF; replaces the final two amino acids of sTF with six histidine residues
procoagulant activity compared with sTF (pooled normal plasma [1]; PT assay, 10% Ni-lipids): dramatically higher than sTF
Concentration of TF that yields a 50 sec. clot time (pooled normal plasma [1]; PT assay): 45 ng/mL
Kd (VIIa [3]; read-out: Kd for VIIa binding to the his-tagged sTF variants, 15% Ni-lipid): 0.169 nM
Kd (VIIa [3]; [7]): 0.169 ± 0.015 nM
ability to allosterically activate VIIa (VIIa [4]): able to fully allosterically activate VIIa
PT clotting times with plasmas deficient in factors V, VII or X (factor-deficient plasmas): prolonged clotting times
PT sensitivity to deficiencies in clotting factors of the intrinsic pathway (factors VIII, IX, XI, XII, PK, or HK) (factor-deficient plasmas): insensitive

sTF: soluble tissue factor, a truncated, soluble form of tissue factor that does not have the membrane-spanning domain nor the cytoplasmic domain [reference compound]
Kd (VIIa [3]; sTF, read-out: Kd for VIIa binding): 7 nM
rates of X activation by VIIa, control combinations (X activation by VIIa): negligible rates of X activation
clotting times compared with sTF-5AA-(His)6 [5]: much longer clotting times

B1: rTF: recombinant, membrane-anchoring tissue factor; rTF/PCPS is rTF relipidated into 20 mol % PS, 80 mol % PC vesicles (protein, UniProt P13726 1-295, looked up)
chain: METPAWPRVPRPETAVARTLLLGWVFAQVAGASGTTNTVAAYNLTWKSTNFKTILEWEPKPVNQVYTVQISTKSGDWKSKCFYTTDTECDLTDEIVKDVKQTYLARVFSYPAGNVESTGSAGEPLYENSPEFTPYLETNLGQPTIQSFEQVGTKVNVTVEDERTLVRRNNTFLSLRDVFGKDLIYTLYYWKSSSSGKKTAKTNTNEFLIDVDKGENYCFSVQAVIPSRTVNRKSTDSPVECMGQEKGEFREIFYIIGAVVFVVIILVIILAISLHKCRKAGVGQSWKENSPLNVS
modifications: full-length relipidated in PS/PC vesicles
notes: recombinant, membrane-anchoring tissue factor; rTF/PCPS is rTF relipidated into 20 mol % PS, 80 mol % PC vesicles
Concentration of TF that yields a 50 sec. clot time (pooled normal plasma [1]; PT assay): 0.7 ng/mL
affinity of VIIa for rTF/PCPS relative to sTF (VIIa [3]): approximately 100 fold
Kd (VIIa [3]; [7]): 0.04 ± 0.005 nM
Kd (VIIa [6]): < 0.05 nM
